Measured values reported in ChEMBL document CHEMBL3751837, “Synthesis of tetravalent LacNAc-glycoclusters as high-affinity cross-linker against Erythrina cristagalli agglutinin” (Bioorg Med Chem, 2016).
Calls of active or inactive are those of the source. No cut-off for these calls is given here.

Key:
Erythrina crista-galli [1] = experiment: Binding affinity to Erythrina crista-galli agglutinin assessed as formation of large aggregate at 5 to 10 uM by dynamic light scattering analysis
Erythrina crista-galli [2] = experiment: Binding affinity to Erythrina crista-galli agglutinin at 0.625 to 480 uM by dynamic light scattering analysis
Erythrina crista-galli [3] = experiment: Binding affinity to Erythrina crista-galli agglutinin by isothermal titration calorimetry analysis relative to 3-TFAP-beta-LacNAc
Erythrina crista-galli [4] = experiment: Binding affinity to Erythrina crista-galli agglutinin assessed as particle size by measuring DLS volume hydrodynamic diameter centered positions at 240 uM by dynamic light scattering analysis (reference value: 8.2 nanometer)
Erythrina crista-galli [5] = experiment: Inhibition of Erythrina crista-galli agglutinin-mediated hemagglutination after 40 mins in presence of rabbit erythrocytes; assay type: cell-based
Erythrina crista-galli [6] = experiment: Binding affinity to Erythrina crista-galli agglutinin at 0.625 to 480 uM by quantitative precipitation assay
Erythrina crista-galli [7] = experiment: Binding affinity to Erythrina crista-galli agglutinin assessed as particle size by measuring DLS volume hydrodynamic diameter centered positions at 20 uM by dynamic light scattering analysis (reference value: 8.2 nanometer)
[8] = Binding affinity to Erythrina crista-galli agglutinin by isothermal titration calorimetry analysis
Erythrina crista-galli [9] = experiment: Binding affinity to Erythrina crista-galli agglutinin assessed as particle size by measuring DLS volume hydrodynamic diameter centered positions at 10 uM by dynamic light scattering analysis (reference value: 8.2 nanometer)
Erythrina crista-galli [10] = experiment: Inhibition of Erythrina crista-galli agglutinin-mediated hemagglutination assessed as concentration of LacNAc unit after 40 mins in presence of rabbit erythrocytes relative to LacNAc; assay type: cell-based
Erythrina crista-galli [11] = experiment: Binding affinity to Erythrina crista-galli agglutinin assessed as particle size by measuring DLS volume hydrodynamic diameter centered positions at 5 uM by dynamic light scattering analysis (reference value: 8.2 nanometer)
Erythrina crista-galli [12] = experiment: Inhibition of Erythrina crista-galli agglutinin-mediated hemagglutination assessed as concentration of LacNAc unit after 40 mins in presence of rabbit erythrocytes; assay type: cell-based
Erythrina crista-galli [13] = experiment: Binding affinity to Erythrina crista-galli agglutinin assessed as particle size by measuring DLS volume hydrodynamic diameter centered positions at 2.5 uM by dynamic light scattering analysis (reference value: 8.2 nanometer)

| Compound | Activity (Erythrina crista-galli [1]) | Activity (Erythrina crista-galli [2]) | Ratio (Erythrina crista-galli [3]) | Activity (Erythrina crista-galli [4]) [nm] | MIC (Erythrina crista-galli [5]) [µM] | Activity (Erythrina crista-galli [6]) | Activity (Erythrina crista-galli [7]) [nm] | Kd [8] [µM] | Activity (Erythrina crista-galli [9]) [nm] | Activity (Erythrina crista-galli [11]) [nm] | MIC (Erythrina crista-galli [12]) [µM] | Activity (Erythrina crista-galli [13]) [nm] | Ratio (Erythrina crista-galli [10]) |
| --- | --- | --- | --- | --- | --- | --- | --- | --- | --- | --- | --- | --- | --- |
| CC(=O)N[C@H]1[C@H](OCCOCCNC(=O)CN(CCOCCOCCN(CC(=O)NCCOCCO[C@@H]2O[C@H](CO)[C@@H](O[C@@H]3O[C@H](CO)[C@@H](O)[C@H](O)[C@H]3O)[C@H](O)[C@H]2NC(C)=O)CC(=O)NCCOCCO[C@@H]2O[C@H](CO)[C@@H](O[C@@H]3O[C@H](CO)[C@@H](O)[C@H](O)[C@H]3O)[C@H](O)[C@H]2NC(C)=O)CC(=O)NCCOCCO[C@@H]2O[C@H](CO)[C@@H](O[C@@H]3O[C@H](CO)[C@@H](O)[C@H](O)[C@H]3O)[C@H](O)[C@H]2NC(C)=O)O[C@H](CO)[C@@H](O[C@@H]2O[C@H](CO)[C@@H](O)[C@H](O)[C@H]2O)[C@@H]1O |  |  | 4.9 |  | 3 | Active |  | 7.2 |  |  | 12 |  | 2 |
| CC(=O)N[C@H]1[C@H](OCCCCCNC(=O)CCCSSCCCC(=O)NCCCCCO[C@@H]2O[C@H](CO)[C@@H](O[C@@H]3O[C@H](CO)[C@@H](O)[C@H](O)[C@H]3O)[C@H](O)[C@H]2NC(C)=O)O[C@H](CO)[C@@H](O[C@@H]2O[C@H](CO)[C@@H](O)[C@H](O)[C@H]2O)[C@@H]1O |  |  | 2 |  | 1.5 | 20% |  | 17.5 |  |  | 3 |  | 8 |
| CC(=O)N[C@H]1[C@H](OCCCNC(=O)C(F)(F)F)O[C@H](CO)[C@@H](O[C@@H]2O[C@H](CO)[C@@H](O)[C@H](O)[C@H]2O)[C@@H]1O |  |  |  |  |  | inactive |  | 35.2 |  |  |  |  |  |
| CC(=O)N[C@H]1C(O)O[C@H](CO)[C@@H](O[C@@H]2O[C@H](CO)[C@@H](O)[C@H](O)[C@H]2O)[C@@H]1O (some centres not stated) |  |  |  |  | 24 |  |  |  |  |  | 24 |  |  |
| CC(=O)N[C@H]1[C@H](OCCOCCNC(=O)CCCCCNC(=O)CN(CCOCCOCCN(CC(=O)NCCCCCC(=O)NCCOCCO[C@@H]2O[C@H](CO)[C@@H](O[C@@H]3O[C@H](CO)[C@@H](O)[C@H](O)[C@H]3O)[C@H](O)[C@H]2NC(C)=O)CC(=O)NCCCCCC(=O)NCCOCCO[C@@H]2O[C@H](CO)[C@@H](O[C@@H]3O[C@H](CO)[C@@H](O)[C@H](O)[C@H]3O)[C@H](O)[C@H]2NC(C)=O)CC(=O)NCCCCCC(=O)NCCOCCO[C@@H]2O[C@H](CO)[C@@H](O[C@@H]3O[C@H](CO)[C@@H](O)[C@H](O)[C@H]3O)[C@H](O)[C@H]2NC(C)=O)O[C@H](CO)[C@@H](O[C@@H]2O[C@H](CO)[C@@H](O)[C@H](O)[C@H]2O)[C@@H]1O |  |  | 5.9 |  | 1.5 | Active |  | 6 |  |  | 6 |  | 4 |

Continued, in another order:

| Activity (Erythrina crista-galli [1]) | Activity (Erythrina crista-galli [2]) | Ratio (Erythrina crista-galli [3]) | Activity (Erythrina crista-galli [4]) [nm] | MIC (Erythrina crista-galli [5]) [µM] | Activity (Erythrina crista-galli [6]) | Activity (Erythrina crista-galli [7]) [nm] | Kd [8] [µM] | Activity (Erythrina crista-galli [9]) [nm] | Activity (Erythrina crista-galli [11]) [nm] | MIC (Erythrina crista-galli [12]) [µM] | Activity (Erythrina crista-galli [13]) [nm] | Compound | Ratio (Erythrina crista-galli [10]) |
| --- | --- | --- | --- | --- | --- | --- | --- | --- | --- | --- | --- | --- | --- |
| Active | Active | 14.1 | 788 | 0.19 | 95% | 2030 | 2.5 | 1510 | 1110 | 0.76 |  | CC(=O)N[C@H]1[C@H](OCCCNC(=O)C[C@H](NC(=O)CCCCCCCCCCCCCCCCC(=O)N[C@@H](CC(=O)NCCCO[C@@H]2O[C@H](CO)[C@@H](O[C@@H]3O[C@H](CO)[C@@H](O)[C@H](O)[C@H]3O)[C@H](O)[C@H]2NC(C)=O)C(=O)NCCCO[C@@H]2O[C@H](CO)[C@@H](O[C@@H]3O[C@H](CO)[C@@H](O)[C@H](O)[C@H]3O)[C@H](O)[C@H]2NC(C)=O)C(=O)NCCCO[C@@H]2O[C@H](CO)[C@@H](O[C@@H]3O[C@H](CO)[C@@H](O)[C@H](O)[C@H]3O)[C@H](O)[C@H]2NC(C)=O)O[C@H](CO)[C@@H](O[C@@H]2O[C@H](CO)[C@@H](O)[C@H](O)[C@H]2O)[C@@H]1O | 32 |
|  |  | 2.3 |  | 1.5 | 41% |  | 15.6 |  |  | 3 |  | CC(=O)N[C@H]1[C@H](OCCCCCNC(=O)CCCCCNC(=O)CCCSSCCCC(=O)NCCCCCC(=O)NCCCCCO[C@@H]2O[C@H](CO)[C@@H](O[C@@H]3O[C@H](CO)[C@@H](O)[C@H](O)[C@H]3O)[C@H](O)[C@H]2NC(C)=O)O[C@H](CO)[C@@H](O[C@@H]2O[C@H](CO)[C@@H](O)[C@H](O)[C@H]2O)[C@@H]1O | 8 |
|  |  | 4.9 |  | 1.5 | 95% |  | 7.2 |  |  | 6 |  | CC(=O)N[C@H]1[C@H](OCCCNC(=O)C[C@H](NC(=O)CCCCC(=O)N[C@@H](CC(=O)NCCCO[C@@H]2O[C@H](CO)[C@@H](O[C@@H]3O[C@H](CO)[C@@H](O)[C@H](O)[C@H]3O)[C@H](O)[C@H]2NC(C)=O)C(=O)NCCCO[C@@H]2O[C@H](CO)[C@@H](O[C@@H]3O[C@H](CO)[C@@H](O)[C@H](O)[C@H]3O)[C@H](O)[C@H]2NC(C)=O)C(=O)NCCCO[C@@H]2O[C@H](CO)[C@@H](O[C@@H]3O[C@H](CO)[C@@H](O)[C@H](O)[C@H]3O)[C@H](O)[C@H]2NC(C)=O)O[C@H](CO)[C@@H](O[C@@H]2O[C@H](CO)[C@@H](O)[C@H](O)[C@H]2O)[C@@H]1O | 4 |
|  | Active | 15.3 |  | 0.14 | 95% | 2280 | 2.3 |  | 1750 | 0.56 | 1880 | CC(=O)N[C@H]1[C@H](OCCCNC(=O)C[C@H](NC(=O)CCCCCNC(=O)CCCCCCCCCCC(=O)NCCCCCC(=O)N[C@@H](CC(=O)NCCCO[C@@H]2O[C@H](CO)[C@@H](O[C@@H]3O[C@H](CO)[C@@H](O)[C@H](O)[C@H]3O)[C@H](O)[C@H]2NC(C)=O)C(=O)NCCCO[C@@H]2O[C@H](CO)[C@@H](O[C@@H]3O[C@H](CO)[C@@H](O)[C@H](O)[C@H]3O)[C@H](O)[C@H]2NC(C)=O)C(=O)NCCCO[C@@H]2O[C@H](CO)[C@@H](O[C@@H]3O[C@H](CO)[C@@H](O)[C@H](O)[C@H]3O)[C@H](O)[C@H]2NC(C)=O)O[C@H](CO)[C@@H](O[C@@H]2O[C@H](CO)[C@@H](O)[C@H](O)[C@H]2O)[C@@H]1O | 43 |
|  |  | 9 |  | 0.75 | 95% |  | 3.9 |  |  | 3 |  | CC(=O)N[C@H]1[C@H](OCCCNC(=O)C[C@H](NC(=O)CCCCCCCCC(=O)N[C@@H](CC(=O)NCCCO[C@@H]2O[C@H](CO)[C@@H](O[C@@H]3O[C@H](CO)[C@@H](O)[C@H](O)[C@H]3O)[C@H](O)[C@H]2NC(C)=O)C(=O)NCCCO[C@@H]2O[C@H](CO)[C@@H](O[C@@H]3O[C@H](CO)[C@@H](O)[C@H](O)[C@H]3O)[C@H](O)[C@H]2NC(C)=O)C(=O)NCCCO[C@@H]2O[C@H](CO)[C@@H](O[C@@H]3O[C@H](CO)[C@@H](O)[C@H](O)[C@H]3O)[C@H](O)[C@H]2NC(C)=O)O[C@H](CO)[C@@H](O[C@@H]2O[C@H](CO)[C@@H](O)[C@H](O)[C@H]2O)[C@@H]1O | 8 |
